Our source for the MIC values is ChEMBL document CHEMBL3882388, “Pharmaceutical Compositions Comprising Beta-Lactam Antibiotic, Sulbactam and Beta-Lactamase Inhibitor” (2014).

In brackets after ≈: the same amount, converted by molar mass.

Assay [1] has as its system Acinetobacter baumannii. Nature of the assay: Antibacterial activity against extended-spectrum b-lactamase producing Acinetobacter baumannii S-3 incubated for 16 to 20 hrs by CLSI method. It is filed as functional.
Assay [2] deals with Beta-lactamase (Acinetobacter baumannii) (UniProt Q8RLA6). The conditions noted are these: NCTC 13305.
Chain of Beta-lactamase (Acinetobacter baumannii) (Q8RLA6 as listed by the source): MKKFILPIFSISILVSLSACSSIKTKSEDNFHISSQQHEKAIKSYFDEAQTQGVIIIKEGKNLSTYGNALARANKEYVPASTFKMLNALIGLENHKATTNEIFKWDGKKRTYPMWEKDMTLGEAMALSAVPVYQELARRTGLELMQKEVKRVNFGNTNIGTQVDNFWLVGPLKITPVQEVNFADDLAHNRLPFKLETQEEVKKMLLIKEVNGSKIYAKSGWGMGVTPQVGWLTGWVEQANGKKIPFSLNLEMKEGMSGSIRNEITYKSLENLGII
The target is the same in assay [3]. Conditions: NCTC 13305. This is another data set of the same source.
Assay [4] deals with Acinetobacter baumannii. Nature of the assay: Antibacterial activity against extended-spectrum b-lactamase producing Acinetobacter baumannii NCTC 13301 incubated for 16 to 20 hrs by CLSI method. It counts as functional.
Assay [5] relates to Acinetobacter baumannii. Nature of the assay: Antibacterial activity against extended-spectrum b-lactamase producing Acinetobacter baumannii S-4 incubated for 16 to 20 hrs by CLSI method. It is filed as functional.
Assay [6] deals with Beta-lactamase (Acinetobacter baumannii) (UniProt Q8RLA6). Conditions: S-3.
For assay [7] the target is unchanged. The conditions noted are these: S-10.
For assay [8] the target is unchanged. The conditions noted are these: NCTC 13301.
The target is the same in assay [9]. Nature of the assay: Inhibition of beta-lactamase in extended-spectrum b-lactamase producing Acinetobacter baumannii S-3 assessed as potentiation of cefpirome-induced antibacterial activity by measuring cefpirome MIC at 4 to 8 ug/ml incubated for 16 to 20 hrs by CLSI method.
The target is the same in assay [10]. The conditions noted are these: S-15.
For assay [11] the target is unchanged. Conditions: NCTC 13301. This is another data set of the same source.
The target is the same in assay [12]. Conditions: NCTC 13304.
Assay [13] shares this target. Conditions: S-15. The source holds these as a separate data set.
Assay [14] shares this target. The conditions noted are these: S-10. The source holds these as a separate data set.
The target is the same in assay [15]. Conditions: NCTC 13301. The source holds these as a separate data set.
The target is the same in assay [16]. Conditions: NCTC 13301. This is another data set of the same source.
Assay [17] shares this target. As to the kind of experiment: Inhibition of beta-lactamase in extended-spectrum b-lactamase producing Acinetobacter baumannii S-4 assessed as potentiation of cefpirome-induced antibacterial activity by measuring cefpirome MIC at 4 to 8 ug/ml incubated for 16 to 20 hrs by CLSI method.
Assay [18] shares this target. The conditions noted are these: S-10. This is another data set of the same source.
Assay [19] shares this target. Conditions: NCTC 13304. The source holds these as a separate data set.
Assay [20] shares this target. The conditions noted are these: S-15. This is another data set of the same source.
Assay [21] has as its system Acinetobacter baumannii. As to the kind of experiment: Antibacterial activity against extended-spectrum b-lactamase producing Acinetobacter baumannii S-15 incubated for 16 to 20 hrs by CLSI method. It counts as functional.
Assay [22] addresses Beta-lactamase (Acinetobacter baumannii) (UniProt Q8RLA6). Conditions: S-3. This is another data set of the same source.
The target is the same in assay [23]. Conditions: S-3. This is another data set of the same source.

Take `NC(=O)[C@@H]1CC[C@@H]2CN1C(=O)N2OS(=O)(=O)O`: the MIC against Acinetobacter baumannii [1] was more than 64 µg/mL; in assay [2] it was less than 0.06 µg/mL; in assay [3], less than 0.06 µg/mL; in the assay with Acinetobacter baumannii [4], more than 64 µg/mL; against Acinetobacter baumannii [5] it was more than 64 µg/mL; in assay [6] it was 4 µg/mL (≈ 15.1 µM). For the same compound, the MIC in assay [7] was less than 0.03 µg/mL; in assay [8], less than 0.06 µg/mL; in assay [9], 32 µg/mL; in [10], 0.12 µg/mL (≈ 0.452 µM); in assay [11], less than 0.06 µg/mL; in assay [12], less than 0.06 µg/mL. Besides, the MIC in assay [13] is 0.12 µg/mL (≈ 0.452 µM); in [14], 8 µg/mL (≈ 30.2 µM); in [15] it was less than 0.06 µg/mL; in [16], less than 0.06 µg/mL; in assay [17], 32 µg/mL; in assay [18], 8 µg/mL (≈ 30.2 µM). For the same compound, the MIC was less than 0.06 µg/mL in assay [19]; 0.5 µg/mL (≈ 1.89 µM) in assay [20]; more than 64 µg/mL with Acinetobacter baumannii [21]; 0.5 µg/mL (≈ 1.89 µM) in assay [22]; 1 µg/mL (≈ 3.77 µM) in [23].
